SMILES strings stand for the structures. Converted amounts (≈) assume the structure as drawn.

Holding throughout (type): functional
The subject of assay [1] is Bacillus subtilis. The assay is described as follows: Antimicrobial activity against Bacillus subtilis using pH 4.0 buffer as solvent by agar diffusion test. Background: Agar diffusion results depend on both activity and mobility in agar.
Assay [2] deals with Staphylococcus aureus. The assay is described as follows: Antimicrobial activity against Staphylococcus aureus using pH 4.0 buffer as solvent by agar diffusion test.
The subject of assay [3] is Escherichia coli. The assay is described as follows: Antimicrobial activity against Escherichia coli using pH 4.0 buffer as solvent by agar diffusion test.
Assay [4] concerns Pseudomonas aeruginosa. The assay is described as follows: Antimicrobial activity against Pseudomonas aeruginosa using pH 4.0 buffer as solvent by agar diffusion test.
The subject of assay [5] is Bacillus subtilis. The assay is described as follows: Antimicrobial activity against Bacillus subtilis using distilled water as solvent by agar diffusion test.
For assay [6], the system named is Staphylococcus aureus. The assay is described as follows: Antimicrobial activity against Staphylococcus aureus using distilled water as solvent by agar diffusion test.
The test system of assay [7] is Escherichia coli. The assay is described as follows: Antimicrobial activity against Escherichia coli using distilled water as solvent by agar diffusion test.
Assay [8] relates to Pseudomonas aeruginosa. The assay is described as follows: Antimicrobial activity against Pseudomonas aeruginosa using distilled water as solvent by agar diffusion test.

A word on the MIC: it is the least concentration at which growth counts as inhibited. Regarding `CC[C@H]1C[C@H]2C[C@@]3(C(=O)OC)c4[nH]c5cc(OC)ccc5c4CCN(C2O)[C@@H]13` (some centres undefined), the MIC in the assay on Bacillus subtilis [1] was determined as 50 µg/mL (≈ 130 µM); against Staphylococcus aureus [2] it was 500 µg/mL (≈ 1300 µM); in the assay with Escherichia coli [3], 500 µg/mL (≈ 1300 µM); with Pseudomonas aeruginosa [4], 300 µg/mL (≈ 780 µM).

Consider `C=CC1CN(C)[C@H]2Cc3c([nH]c4ccccc34)[C@H](c3cc4c5c([nH]c4cc3OC)[C@]3(C(=O)OC)C[C@@H]4C[C@H](CC)[C@@H]3N(CC5)C4O)C[C@H]1C2C(=O)OC` (some centres undefined), for which the minimal inhibitory concentration (MIC) came out at 8 µg/mL (≈ 11.1 µM) with Bacillus subtilis [1], 65 µg/mL (≈ 90.2 µM) in the assay on Staphylococcus aureus [2], 170 µg/mL (≈ 236 µM) in the assay with Escherichia coli [3] and 65 µg/mL (≈ 90.2 µM) with Pseudomonas aeruginosa [4].

Regarding `C=CC1CN(C)[C@H]2Cc3c([nH]c4ccccc34)[C@H](c3c(OC)ccc4c5c([nH]c34)[C@]3(C(=O)OC)C[C@@H]4C[C@H](CC)[C@@H]3N(CC5)C4O)C[C@H]1C2C(=O)OC` (some centres undefined), the MIC with Bacillus subtilis [1] was found to be 14 µg/mL (≈ 19.4 µM); in the assay with Staphylococcus aureus [2], 45 µg/mL (≈ 62.4 µM); with Escherichia coli [3], 750 µg/mL (≈ 1040 µM); against Pseudomonas aeruginosa [4], 150 µg/mL (≈ 208 µM).

For `CC[C@H]1C[C@H]2C[C@@]3(C(=O)OC)c4[nH]c5cc(OC)c(OC)cc5c4CCN(C2O)[C@@H]13` (some centres undefined), the minimum inhibitory concentration (MIC) in the assay with Bacillus subtilis [1] was 60 µg/mL (≈ 145 µM); in the assay with Staphylococcus aureus [2], 140 µg/mL (≈ 338 µM); in the assay with Escherichia coli [3], greater than 1000 µg/mL; against Pseudomonas aeruginosa [4], greater than 1000 µg/mL.

As for `C=CC1CN(C)[C@H]2Cc3c([nH]c4ccccc34)[C@H](c3cc4c5c([nH]c4cc3OC)[C@]3(C(=O)OC)C[C@@H]4C[C@H](CC)[C@@H]3N(CC5)C4)C[C@H]1C2C(=O)OC` (some centres undefined) [CONODURAMINE], the MIC in the assay on Bacillus subtilis [1] turned out to be 15 µg/mL (≈ 21.3 µM); against Staphylococcus aureus [2], 35 µg/mL (≈ 49.7 µM); with Escherichia coli [3] it was 110 µg/mL (≈ 156 µM); in the assay with Pseudomonas aeruginosa [4], 400 µg/mL (≈ 567 µM).

For the compound `C=CC1CN(C)[C@H]2Cc3c([nH]c4ccccc34)[C@H](c3c(OC)ccc4c5c([nH]c34)[C@]3(C(=O)OC)C[C@@H]4C[C@H](CC)[C@@H]3N(CC5)C4)C[C@H]1C2C(=O)OC` (some centres undefined) [CONODURINE], the MIC against Bacillus subtilis [1] came to 4 µg/mL (≈ 5.67 µM); against Staphylococcus aureus [2], 50 µg/mL (≈ 70.9 µM); against Escherichia coli [3], 70 µg/mL (≈ 99.3 µM); in the assay with Pseudomonas aeruginosa [4], 400 µg/mL (≈ 567 µM).

For `CN[C@@H]1[C@H](O[C@H]2[C@H](O[C@H]3[C@H](O)[C@@H](O)[C@H](N=C(N)N)[C@@H](O)[C@@H]3N=C(N)N)O[C@@H](C)[C@]2(O)C=O)O[C@@H](CO)[C@H](O)[C@H]1O` [STREPTOMYCIN], the MIC was found to be 1 µg/mL (≈ 1.72 µM) against Bacillus subtilis [1]; 5 µg/mL (≈ 8.6 µM) against Staphylococcus aureus [2]; 80 µg/mL (≈ 138 µM) with Escherichia coli [3]; 7 µg/mL (≈ 12 µM) in the assay on Pseudomonas aeruginosa [4]; 0.2 µg/mL (≈ 0.344 µM) with Bacillus subtilis [5]; 1 µg/mL (≈ 1.72 µM) in the assay on Staphylococcus aureus [6]. Moreover, the MIC is 0.5 µg/mL (≈ 0.86 µM) in the assay with Escherichia coli [7] and 12 µg/mL (≈ 20.6 µM) in the assay on Pseudomonas aeruginosa [8].

Consider `C=CC1CN(C)[C@@H]2Cc3c([nH]c4ccccc34)[C@@H](/C=C3\c4[nH]c5ccccc5c4CN4CC[C@H]3/C(=C\C)C4)C[C@@H]1C2C(=O)OC` (some centres undefined) [VOBAPARICINE], for which the MIC with Bacillus subtilis [1] came to 50 µg/mL (≈ 83.2 µM); in the assay with Escherichia coli [3] it was 100 µg/mL (≈ 166 µM).

The values are drawn from ChEMBL document CHEMBL1151651, “Antimicrobially active alkaloids from Tabernaemontana chippii” (1985).
